# Source: US20230348426A1, “OXOPYRROLIDINE FPR2 AGONISTS” (Bristol-Myers Squibb Company, priority 2020, published 2023)
# Experiments:
# human FPR2 = human FPR2 (Homo sapiens (Human), UniProt P25090); test: FPR2 cyclic adenosine monophosphate (cAMP) assay; type: cell-based; conditions: CHO cells overexpressing human FPR2; forskolin 5 µM; inhibition of cAMP production; read-out: hFPR2 cAMP2 EC50
# Method in brief: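 CHO cells overexpressing human FPR2 (2,000/well) incubated 30 min at room temperature with compound (0.020 nM–100 µM, 1% DMSO), 5 µM forskolin and 200 µM IBMX.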
# human FPR1 = human FPR1 (Homo sapiens (Human), UniProt P21462); test: FPR1 cyclic adenosine monophosphate (cAMP) assay; type: cell-based; conditions: CHO cells overexpressing human FPR1; forskolin 10 µM; inhibition of cAMP production; read-out: hFPR1 cAMP EC50
# Method in brief: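 CHO cells overexpressing human FPR1 (4,000 cells/well) stimulated with 10 µM forskolin plus 200 µM IBMX in the presence of compound (0.020 nM–100 µM, 1% DMSO), 30 min at room temperature. Intracellular cAMP measured by HTRF. Inhibition of cAMP production fitted to a 4-parameter logistic equation.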
# human FPR1, sequence (P21462 whole entry): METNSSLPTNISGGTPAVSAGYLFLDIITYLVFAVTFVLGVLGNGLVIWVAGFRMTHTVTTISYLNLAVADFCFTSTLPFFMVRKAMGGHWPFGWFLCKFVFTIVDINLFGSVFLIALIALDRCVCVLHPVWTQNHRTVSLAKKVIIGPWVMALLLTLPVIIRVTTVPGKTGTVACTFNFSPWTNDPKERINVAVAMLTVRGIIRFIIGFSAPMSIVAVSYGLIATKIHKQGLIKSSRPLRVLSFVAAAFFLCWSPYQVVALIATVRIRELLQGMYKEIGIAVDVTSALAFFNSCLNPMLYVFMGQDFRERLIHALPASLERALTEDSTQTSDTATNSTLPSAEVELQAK
# human FPR2, sequence (P25090 whole entry): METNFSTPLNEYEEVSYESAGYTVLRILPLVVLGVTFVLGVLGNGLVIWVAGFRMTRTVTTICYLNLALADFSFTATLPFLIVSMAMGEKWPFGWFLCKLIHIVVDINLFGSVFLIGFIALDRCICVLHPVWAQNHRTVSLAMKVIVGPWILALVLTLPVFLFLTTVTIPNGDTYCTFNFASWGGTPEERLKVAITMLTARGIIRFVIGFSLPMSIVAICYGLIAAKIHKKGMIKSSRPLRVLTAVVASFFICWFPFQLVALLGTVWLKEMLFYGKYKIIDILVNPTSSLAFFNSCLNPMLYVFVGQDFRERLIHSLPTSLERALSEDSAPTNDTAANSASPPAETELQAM
SMILES,EC50 (human FPR2) [nM],EC50 (human FPR1) [nM]
CCn1ccc(F)c(N2C[C@@H](c3c(F)cc(OC)cc3F)[C@H](NC(=O)c3ccc(OC(F)F)cc3)C2=O)c1=O [Example 373],12.5,233
COc1cc(F)c([C@@H]2CN(c3c(C)ccn(CC4CCOCC4)c3=O)C(=O)[C@H]2NC(=O)c2ccc(OC(F)F)cc2)c(F)c1 [Example 457],3.2,2
COc1cc(N2C[C@@H](c3c(F)cc(OC)cc3F)[C@H](NC(=O)c3ccc(OC(F)F)cc3)C2=O)nc(C(C)(C)O)c1 [Example 585],21.8,1200
COc1cc(C2CCN(CCO)CC2)nc(N2C(=O)[C@@H](NC(=O)c3ccc(OC(F)F)cc3)[C@H](c3c(F)cc(OC)cc3F)[C@@H]2C)c1 [Example 504],2.2,3300
COCCN1CCC(c2cc(OC)cc(N3C(=O)[C@@H](NC(=O)c4ccc(OC(F)F)cc4)[C@H](c4c(F)cc(OC)cc4F)[C@@H]3C)n2)CC1 [Example 491],1.8,> 5000
COc1cc(F)c([C@@H]2CN(c3nccc(OC4CCOC4)c3C(F)(F)F)C(=O)[C@H]2NC(=O)c2ccc(Cl)cc2)c(F)c1 (some centres unmarked) [Example 708],11,> 1000
COc1cc(F)c([C@@H]2CN(c3nccc(NC4CCOC4)c3C(F)(F)F)C(=O)[C@H]2NC(=O)c2ccc(Cl)cc2)c(F)c1 (some centres unmarked) [Example 263],7.5,1300
COc1cc(F)c([C@@H]2CN(c3nc(N4CCN(C)CC4)ccc3F)C(=O)[C@H]2NC(=O)c2ccc(OC(F)F)cc2)c(F)c1 [Example 54],1.4,820
COc1cc(F)c([C@@H]2CN(c3c(C)ccn(CC(C)O)c3=O)C(=O)[C@H]2NC(=O)c2ccc(Cl)cc2)c(F)c1 (some centres unmarked) [Example 362],0.1,12
COc1cc(F)c([C@@H]2CN(c3ncccc3C#N)C(=O)[C@H]2NC(=O)c2ccc(OC(F)(F)F)cc2)c(F)c1 [Example 15],22,1100
COc1cc(F)c([C@@H]2CN(c3nccc(NCC(C)O)c3C(F)(F)F)C(=O)[C@H]2NC(=O)c2ccc(OC(F)F)cc2)c(F)c1 (some centres unmarked) [Example 234],6.3,1100
COc1cc(F)c([C@@H]2CN(c3cccn(CCN4CC5(COC5)C4)c3=O)C(=O)[C@H]2NC(=O)c2ccc(OC(F)F)cc2)c(F)c1 [Example 164],4.2,290
COc1cc(F)c([C@@H]2CN(c3nccc(N4C[C@@H]5C[C@H]4CN5C)c3C#N)C(=O)[C@H]2NC(=O)c2ccc(Cl)cc2)c(F)c1 [Example 160],4.1,1100
COCCNc1ccnc(N2C[C@@H](c3c(F)cc(OC)cc3F)[C@H](NC(=O)c3ccc(Cl)cc3)C2=O)c1C(F)(F)F [Example 410],11.7,3300
COc1cc(F)c([C@@H]2CN(c3c(C)ccn(C(CO)C(F)(F)F)c3=O)C(=O)[C@H]2NC(=O)c2ccc(OC(F)F)cc2)c(F)c1 (some centres unmarked) [Example 706],9.4,19
COc1cc(F)c([C@@H]2CN(c3nc(N4CCC4=O)ccc3F)C(=O)[C@H]2NC(=O)c2ccc(OC(F)F)cc2)c(F)c1 [Example 46],1,2
COc1cc(N2C[C@@H](C)N(C)[C@@H](C)C2)nc(N2C[C@@H](c3c(F)cc(OC)cc3F)[C@H](NC(=O)c3ccc(Cl)cc3)C2=O)c1 [Example 180],4.7,> 10000
COc1cc(F)c([C@@H]2CN(c3cc(C)cc(N4C[C@@H]5C[C@H]4CN5C)n3)C(=O)[C@H]2NC(=O)c2ccc(OC(F)F)cc2)c(F)c1 [Example 570],1.2,1500
COCCn1cc(C)c(C)c(N2C[C@@H](c3c(F)cc(OC)cc3F)C(NC(=O)c3ccc(Cl)cc3)C2=O)c1=O (some centres unmarked) [Example 640],2.2,1200
COc1cc(F)c([C@@H]2CN(c3c(C)c4c(n(CCO)c3=O)CCCC4)C(=O)[C@H]2NC(=O)c2ccc(Cl)cc2)c(F)c1 [Example 607],13.3,30
CCn1ccc(N2C[C@@H](c3c(F)cc(OC)cc3F)[C@H](NC(=O)c3ccc(OC(F)F)cc3)C2=O)n1 [Example 648],0.7,4.1
COc1cc(F)c([C@@H]2CN(c3cccn(CCN4CCOCC4)c3=O)C(=O)[C@H]2NC(=O)c2ccc(OC(F)F)cc2)c(F)c1 [Example 99],2.7,330
COc1cc(C2CCN(C)CC2)nc(N2C(=O)[C@@H](NC(=O)c3ccc(OC(F)(F)F)cc3)[C@H](c3c(F)cc(OC)cc3F)[C@@H]2C)c1 [Example 565],8.2,720
COCCn1c2c(cc(N3C[C@@H](c4c(F)cc(OC)cc4F)[C@H](NC(=O)c4ccc(Cl)cc4)C3=O)c1=O)CCCC2 [Example 461],3.7,3
COc1cc(F)c([C@H]2[C@H](NC(=O)c3ccc(OC(F)F)cc3)C(=O)N(c3cccc(C4CCN(C)CC4)n3)[C@H]2C)c(F)c1 [Example 523],1.4,3600
COc1cc(F)c([C@@H]2CN(c3nc(N4C[C@@H]5C[C@H]4CN5C)ccc3OC)C(=O)[C@H]2NC(=O)c2ccc(Cl)cc2)c(F)c1 [Example 259],7.4,580
COCCn1cccc(N2C(=O)[C@@H](NC(=O)c3ccc(Cl)cc3)[C@H](c3c(F)cc(OC)cc3F)[C@@H]2C)c1=O [Example 74],1.9,94
COCCn1cccc(N2C(=O)[C@@H](NC(=O)c3ccc(Cl)cc3)[C@H](c3c(F)cc(OC)cc3F)[C@H]2C)c1=O [Example 220],5.8,990

# The next lines start with the values.
EC50 (human FPR2) [nM],EC50 (human FPR1) [nM],SMILES
0.6,0.2,COc1ccc([C@@H]2CN(c3c(C)ccn(C4CCC4)c3=O)C(=O)[C@H]2NC(=O)c2ccc(OC(F)F)cc2)cc1 [Example 577]
5.5,190,COc1cc(F)c([C@@H]2CN(c3cccn(CCN4CC5(COC5)C4)c3=O)C(=O)[C@H]2NC(=O)c2ccc(OC(F)(F)F)cc2)c(F)c1 [Example 210]
9.3,150,COc1cc(F)c([C@H]2[C@H](NC(=O)c3ccc(OC(F)(F)F)cc3)C(=O)N(c3cccn(CCO)c3=O)[C@H]2C)c(F)c1 [Example 301]
11,270,COc1cc(F)c([C@@H]2CN(c3cccn(CC(O)CO)c3=O)C(=O)[C@H]2NC(=O)c2ccc(OC(F)(F)F)cc2)c(F)c1 (some centres unmarked) [Example 669]
1.9,4.2,O=C(N[C@@H]1C(=O)N(c2cccn(CC(F)F)c2=O)C[C@H]1c1ccc(Cl)cc1)c1ccc(OC(F)(F)F)cc1 [Example 69]
0.6,110,COCC(CN)n1cccc(N2C[C@@H](c3c(F)cc(OC)cc3F)[C@H](NC(=O)c3ccc(OC(F)F)cc3)C2=O)c1=O (some centres unmarked) [Example 41]
7.2,8.3,COc1ccc([C@@H]2CN(c3ccnn(CC(F)F)c3=O)C(=O)[C@H]2NC(=O)c2ccc(OC(F)(F)F)cc2)c(F)c1 [Example 696]
2.4,45,COc1cc(F)c([C@@H]2CN(c3cccn(CC(C)O)c3=O)C(=O)[C@H]2NC(=O)c2ccc(OC(F)(F)F)cc2)c(F)c1 (some centres unmarked) [Example 89]
35,27,COc1cc(F)c([C@@H]2CN(c3ccc(=O)n(C)c3)C(=O)[C@H]2NC(=O)c2ccc(OC(F)(F)F)cc2)c(F)c1 [Example 26]
5.5,30,COCCn1cccc(N2C[C@@H](c3c(F)cc(OC)cc3F)[C@H](NC(=O)c3ccc(OC(F)F)cc3)C2=O)c1=O [Example 36]
6.9,13,CCn1cccc(N2C[C@@H](c3ccc(OC)cc3F)[C@H](NC(=O)c3ccc(OC(F)(F)F)cc3)C2=O)c1=O [Example 249]
2.9,10,COc1cc(F)c([C@@H]2CN(c3c(C)ccn(CC#N)c3=O)C(=O)[C@H]2NC(=O)c2ccc(OC(F)(F)F)cc2)c(F)c1 [Example 455]
2.2,11,CC(O)Cn1cccc(N2C[C@@H](c3ccc(Cl)cc3)[C@H](NC(=O)c3ccc(Cl)cc3)C2=O)c1=O (some centres unmarked) [Example 424]
4.7,2,COc1ccc([C@@H]2CN(c3cccn(CC(C)OC)c3=O)C(=O)[C@H]2NC(=O)c2ccc(OC(F)(F)F)cc2)cc1 (some centres unmarked) [Example 405]
3,3,COc1ccc([C@@H]2CN(c3c(C)ccn(CC(F)F)c3=O)C(=O)[C@H]2NC(=O)c2ccc(Cl)cc2)cc1 [Example 366]
3.8,300,COc1cc(F)c([C@@H]2CN(c3cccn(C)c3=O)C(=O)[C@H]2NC(=O)c2ccc(OC(F)F)cc2)c(F)c1 [Example 34]
45,300,COc1cc(F)c([C@@H]2CN(c3cccc(C(F)F)n3)C(=O)[C@H]2NC(=O)c2ccc(OC(F)(F)F)cc2)c(F)c1 [Example 24]
2.9,5.7,COCCn1cccc(N2C[C@@H](c3ccc(Cl)cc3)[C@H](NC(=O)c3ccc(OC(F)(F)F)cc3)C2=O)c1=O [Example 107]
4.7,19,COCC(CO)n1cccc(N2C[C@@H](c3ccc(Cl)cc3)[C@H](NC(=O)c3ccc(Cl)cc3)C2=O)c1=O (some centres unmarked) [Example 414]
6.8,23,CCn1nccc(N2C[C@@H](c3ccc(OC)cc3)[C@H](NC(=O)c3ccc(OC(F)F)cc3)C2=O)c1=O [Example 674]
3,0.67,COc1ccc([C@@H]2CN(c3c(C)ccn(CC4CCOCC4)c3=O)C(=O)[C@H]2NC(=O)c2ccc(OC(F)(F)F)cc2)cc1 [Example 700]
